Source: US20230139445A1, “BACTERIAL CELLS WITH IMPROVED TOLERANCE TO DIACIDS” (priority 2016, published 2023)
Like-named read-outs stand apart in the source and are kept apart here.

Tests used:
[1] = test system: Escherichia coli K-12 MG1655; experiment: Growth of K-12 MG1655 in varying concentrations of fumaric, itaconic, malic and succinic acid, Growth Profiler; assay type: cell-based
How it was run: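 Escherichia coli K-12 MG1655 cultures were grown in M9 medium with 1% glucose and challenged with the dicarboxylic acids, supplied as neutral sodium salts or as free acids neutralized to pH 7.0 with sodium hydroxide. Plates were shaken at 225 rpm and 37° C. in a Growth Profiler, scanned every 15 minutes, and green pixel values were converted to OD600 by calibration.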

[2] = test system: Escherichia coli K-12 MG1655 and evolved isolates; assay type: cell-based; conditions: 50 g/L succinic acid
How it was run: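 Wild-type MG1655 and evolved isolates, precultured overnight in M9 + 1% glucose at 37 °C, were diluted into M9 + 1% glucose. Growth at 37 °C, 225 rpm, scanned every 15 min; pixel values calibrated to OD600. Diacids tested as sodium salts or neutralized to pH 7.0.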

SMILES: O=C(O)CCC(=O)O [succinic acid]
- μ (mean) ([1]; growth rate of K-12 MG1655, 10 g/L diacid (sodium salt)): 0.665 h^1
- μ (mean) ([1]; growth rate of K-12 MG1655, 20 g/L diacid (sodium salt)): 0.610 h^1
- μ (mean) ([1]; growth rate of K-12 MG1655, 30 g/L diacid (sodium salt)): 0.496 h^1
- μ (mean) ([1]; growth rate of K-12 MG1655, 40 g/L diacid (sodium salt)): 0.345 h^1
- μ (mean) ([1]; growth rate of K-12 MG1655, 50 g/L diacid (sodium salt)): 0.179 h^1
- μ (mean) ([1]; growth rate of K-12 MG1655, 60 g/L diacid (sodium salt)): 0.127 h^1
- tlag (mean) ([1]; lag time of K-12 MG1655, 10 g/L diacid (sodium salt)): 5.4 h
- tlag (mean) ([1]; lag time of K-12 MG1655, 20 g/L diacid (sodium salt)): 6.7 h
- tlag (mean) ([1]; lag time of K-12 MG1655, 30 g/L diacid (sodium salt)): 8.9 h
- tlag (mean) ([1]; lag time of K-12 MG1655, 40 g/L diacid (sodium salt)): 13.4 h
- tlag (mean) ([1]; lag time of K-12 MG1655, 50 g/L diacid (sodium salt)): 22.4 h
- tlag (mean) ([1]; lag time of K-12 MG1655, 60 g/L diacid (sodium salt)): 42.5 h
- growth rate μ (mean) ([2]; strain ADIP1-1): 0.299 h⁻¹
- lag time tlag (mean) ([2]; strain ADIP1-1): 16.1 h
- growth rate μ (mean) ([2]; strain ADIP1-9): 0.290 h⁻¹
- lag time tlag (mean) ([2]; strain ADIP1-9): 14.5 h
- growth rate μ (mean) ([2]; strain ADIP2-5): 0.260 h⁻¹
- lag time tlag (mean) ([2]; strain ADIP2-5): 25.5 h
- growth rate μ (mean) ([2]; strain ADIP2-6): 0.278 h⁻¹
- lag time tlag (mean) ([2]; strain ADIP2-6): 21.7 h
- growth rate μ (mean) ([2]; strain ADIP2-10): 0.262 h⁻¹
- lag time tlag (mean) ([2]; strain ADIP2-10): 22.0 h
- growth rate μ (mean) ([2]; strain ADIP3-2): 0.311 h⁻¹
- lag time tlag (mean) ([2]; strain ADIP3-2): 13.2 h
- growth rate μ (mean) ([2]; strain ADIP3-4): 0.308 h⁻¹
- lag time tlag (mean) ([2]; strain ADIP3-4): 12.7 h
- growth rate μ (mean) ([2]; strain ADIP3-8): 0.304 h⁻¹
- lag time tlag (mean) ([2]; strain ADIP3-8): 13.8 h
- growth rate μ (mean) ([2]; strain ADIP4-1): 0.206 h⁻¹
- lag time tlag (mean) ([2]; strain ADIP4-1): 15.7 h
- growth rate μ (mean) ([2]; strain ADIP4-8): 0.228 h⁻¹
- lag time tlag (mean) ([2]; strain ADIP4-8): 15.8 h
- growth rate μ (mean) ([2]; strain ADIP5-2): 0.192 h⁻¹
- lag time tlag (mean) ([2]; strain ADIP5-2): 13.5 h
- growth rate μ (mean) ([2]; strain ADIP5-6): 0.361 h⁻¹
- lag time tlag (mean) ([2]; strain ADIP5-6): 12.1 h
- growth rate μ (mean) ([2]; strain ADIP6-3): 0.246 h⁻¹
- lag time tlag (mean) ([2]; strain ADIP6-3): 14.9 h
- growth rate μ (mean) ([2]; strain ADIP6-9): 0.210 h⁻¹
- lag time tlag (mean) ([2]; strain ADIP6-9): 18.4 h
- growth rate μ (mean) ([2]; strain ADIP6-10): 0.285 h⁻¹
- lag time tlag (mean) ([2]; strain ADIP6-10): 12.4 h
- growth rate μ (mean) ([2]; strain ADIP7-2): 0.294 h⁻¹
- lag time tlag (mean) ([2]; strain ADIP7-2): 12.5 h
- growth rate μ (mean) ([2]; strain ADIP7-5): 0.274 h⁻¹
- lag time tlag (mean) ([2]; strain ADIP7-5): 12.4 h
- growth rate μ (mean) ([2]; strain ADIP8-3): 0.146 h⁻¹
- lag time tlag (mean) ([2]; strain ADIP8-3): 22.1 h
- growth rate μ (mean) ([2]; strain ADIP8-7): 0.163 h⁻¹
- lag time tlag (mean) ([2]; strain ADIP8-7): 23.2 h
- growth rate μ (mean) ([2]; strain ADIP8-10): 0.131 h⁻¹
- lag time tlag (mean) ([2]; strain ADIP8-10): 20.0 h
- growth rate μ (mean) ([2]; strain GLUT1-3): 0.231 h⁻¹
- lag time tlag (mean) ([2]; strain GLUT1-3): 14.5 h
- growth rate μ (mean) ([2]; strain GLUT1-9): 0.194 h⁻¹
- lag time tlag (mean) ([2]; strain GLUT1-9): 20.8 h
- growth rate μ (mean) ([2]; strain GLUT1-10): 0.246 h⁻¹
- lag time tlag (mean) ([2]; strain GLUT1-10): 20.0 h
- growth rate μ (mean) ([2]; strain GLUT2-1): 0.232 h⁻¹
- lag time tlag (mean) ([2]; strain GLUT2-1): 14.7 h
- growth rate μ (mean) ([2]; strain GLUT2-9): 0.213 h⁻¹
- lag time tlag (mean) ([2]; strain GLUT2-9): 14.4 h
- growth rate μ (mean) ([2]; strain GLUT2-10): 0.277 h⁻¹
- lag time tlag (mean) ([2]; strain GLUT2-10): 13.4 h
- growth rate μ (mean) ([2]; strain GLUT3-5): 0.242 h⁻¹
- lag time tlag (mean) ([2]; strain GLUT3-5): 16.1 h
- growth rate μ (mean) ([2]; strain GLUT3-7): 0.235 h⁻¹
- lag time tlag (mean) ([2]; strain GLUT3-7): 15.3 h
- growth rate μ (mean) ([2]; strain GLUT3-9): 0.221 h⁻¹
- lag time tlag (mean) ([2]; strain GLUT3-9): 20.6 h
- growth rate μ (mean) ([2]; strain GLUT4-1): 0.263 h⁻¹
- lag time tlag (mean) ([2]; strain GLUT4-1): 16.3 h
- growth rate μ (mean) ([2]; strain GLUT4-4): 0.242 h⁻¹
- lag time tlag (mean) ([2]; strain GLUT4-4): 16.6 h
- growth rate μ (mean) ([2]; strain GLUT4-10): 0.231 h⁻¹
- lag time tlag (mean) ([2]; strain GLUT4-10): 15.7 h
- growth rate μ (mean) ([2]; strain GLUT5-4): 0.281 h⁻¹
- lag time tlag (mean) ([2]; strain GLUT5-4): 17.0 h
- growth rate μ (mean) ([2]; strain GLUT5-5): 0.264 h⁻¹
- lag time tlag (mean) ([2]; strain GLUT5-5): 18.4 h
- growth rate μ (mean) ([2]; strain GLUT5-9): 0.244 h⁻¹
- lag time tlag (mean) ([2]; strain GLUT5-9): 18.4 h
- growth rate μ (mean) ([2]; strain GLUT6-4): 0.241 h⁻¹
- lag time tlag (mean) ([2]; strain GLUT6-4): 14.2 h
- growth rate μ (mean) ([2]; strain GLUT6-5): 0.243 h⁻¹
- lag time tlag (mean) ([2]; strain GLUT6-5): 13.9 h
- growth rate μ (mean) ([2]; strain GLUT6-10): 0.211 h⁻¹
- lag time tlag (mean) ([2]; strain GLUT6-10): 14.4 h
- growth rate μ (mean) ([2]; strain GLUT7-2): 0.223 h⁻¹
- lag time tlag (mean) ([2]; strain GLUT7-2): 14.9 h
- growth rate μ (mean) ([2]; strain GLUT7-6): 0.195 h⁻¹
- lag time tlag (mean) ([2]; strain GLUT7-6): 17.8 h
- growth rate μ (mean) ([2]; strain GLUT7-7): 0.156 h⁻¹
- lag time tlag (mean) ([2]; strain GLUT7-7): 19.9 h
- growth rate μ (mean) ([2]; strain GLUT8-5): 0.198 h⁻¹
- lag time tlag (mean) ([2]; strain GLUT8-5): 16.4 h
- growth rate μ (mean) ([2]; strain GLUT8-6): 0.236 h⁻¹
- lag time tlag (mean) ([2]; strain GLUT8-6): 34.1 h
- growth rate μ (mean) ([2]; strain GLUT8-9): 0.250 h⁻¹
- lag time tlag (mean) ([2]; strain GLUT8-9): 38.0 h
- growth rate μ (mean) ([2]; strain MG1655 (Table 28)): 0.169 h⁻¹
- lag time tlag (mean) ([2]; strain MG1655 (Table 28)): 20.2 h
- growth rate μ (mean) ([2]; strain MG1655 (Table 29)): 0.143 h⁻¹
- lag time tlag (mean) ([2]; strain MG1655 (Table 29)): 23.8 h
